# System: cotton aphid (Aphis gossypii)
# Experiment: Aphis gossypii Test
# Type: in vivo
# Details: 144 h, 500 ppm, cotton leaves dipped, read-out: Kill rate in % after 6d
# Method: (§1) To produce a suitable preparation of active compound, 1 part by weight of active compound is mixed with the stated amounts of solvent and emulsifier, and the concentrate is diluted with emulsifier-containing water to the desired concentration.
# Cotton leaves (Gossypium hirsutum) which are heavily infested by the cotton aphid (Aphis gossypii) are treated by being dipped into the preparation of active compound of the desired concentration.
# (§2) After the desired period of time, the kill in % is determined. 100% means that all aphids have been killed; 0% means that none of the aphids have been killed.
row,Compound,pest or weed control at 500 ppm
1,CCOC(=O)CSc1nccc(-n2cc(SC(F)(F)C(F)F)cn2)n1 [drawing 206],90%
2,CCOC(=O)CN(C)c1nccc(-n2cccn2)n1 [drawing 198],99%
3,CCOC(=O)CSc1nccc(-n2cc(OC)cn2)n1,95%
4,CCOC(=O)CSc1nccc(-n2cc(C(F)(F)F)cn2)n1 [drawing 201],95%
5,COc1cnn(-c2ccnc(SCC(=O)OCC(F)(F)F)n2)c1 [drawing 205],100%

# Same assay, conditions: 144 h, read-out: Kill rate in % after 6d
row,Compound,pest or weed control at 500 ppm
1,CC(OC(=O)CSc1nccc(-n2cc(Cl)cn2)n1)C(F)(F)C(F)(F)C(F)(F)F (stereo not shown) [drawing 204],90%
2,O=C(CSc1nccc(-n2cc(Cl)cn2)n1)OCC(F)(F)C(F)(F)C(F)(F)F,99%
3,CN(CC(=O)OCC(F)(F)C(F)(F)C(F)(F)F)c1nccc(-n2cc(Cl)cn2)n1 [drawing 202],95%

# System: peach aphids (Myzus persicae)
# Experiment: Myzus Test/Cabbage
# Type: in vivo
# Details: 144 h, 500 ppm, Table B 1, cabbage leaves dipped, read-out: Kill rate in % after 6d
# Method: as §1
# Cabbage leaves (Brassica oleracea) which are heavily infested by peach aphids (Myzus persicae) are treated by being dipped into the preparation of active compound of the desired concentration.
# as §2
# Amounts of solvent, amounts of emulsifier, active compounds, active compound concentrations and test results are shown in the Tables below.
row,Compound,pest or weed control at 500 ppm
1,CCOC(=O)CSc1nccc(-n2cccn2)n1 [drawing 174],95%
2,CCOC(=O)CSc1nccc(-n2cc(Br)cn2)n1,100%

# Same assay, conditions: 144 h, 500 ppm, Table B 2, cabbage leaves dipped, read-out: Kill rate in % after 6d
row,Compound,pest or weed control at 500 ppm
1,COc1cnn(-c2ccnc(SCC(=O)O)n2)c1 [drawing 190],100%
2,CCOC(=O)CSc1nccc(-n2cc(C(F)(F)F)cn2)n1 [drawing 188],100%
3,O=C(CSc1nccc(-n2cccn2)n1)OCC(F)(F)F,100%
4,O=C(CSc1nccc(-n2cccn2)n1)OCC(F)(F)C(F)F,100%
5,O=C(CSc1nccc(-n2cccn2)n1)OCC(Cl)Cl,100%
6,COc1cnn(-c2ccnc(N(C)CC(=O)OCC(F)(F)F)n2)c1,100%
7,O=C(O)CSc1nccc(-n2cc(Br)cn2)n1 [drawing 186],100%
8,CCOC(=O)CSc1nccc(-n2cc(-c3ccc(Cl)cc3)cn2)n1,100%
9,CCOC(=O)CSc1nccc(-n2cc(-c3ccccc3)cn2)n1 [drawing 177],100%
10,O=C(CSc1nccc(-n2cccn2)n1)OCC(F)(F)C(F)(F)F,100%
11,O=C(CSc1nccc(-n2cccn2)n1)OC(C(F)(F)F)C(F)(F)F,100%

# Same assay, conditions: 144 h, read-out: Kill rate in % after 6d
row,Compound,pest or weed control at 500 ppm
1,CN(CC(=O)OCC(F)(F)C(F)(F)C(F)(F)F)c1nccc(-n2cc(Cl)cn2)n1 [drawing 189],100%
2,COc1cnn(-c2ccnc(N(C)CC(=O)OCC(F)(F)C(F)(F)C(F)(F)F)n2)c1,100%
3,O=C(CSc1nccc(-n2cccn2)n1)OCC(F)(F)C(F)(F)C(F)(F)F,100%
4,COc1cnn(-c2ccnc(SCC(=O)OC(C)C(F)(F)C(F)(F)C(F)(F)F)n2)c1 (stereo not shown) [drawing 192],100%
5,CN(CC(=O)OCC(F)(F)C(F)(F)C(F)(F)F)c1nccc(-n2cccn2)n1,100%
6,CC(OC(=O)CSc1nccc(-n2cc(Br)cn2)n1)C(F)(F)C(F)(F)C(F)(F)F (stereo not shown) [drawing 193],100%
7,CC(OC(=O)CSc1nccc(-n2cc(Cl)cn2)n1)C(F)(F)C(F)(F)C(F)(F)F (stereo not shown) [drawing 191],100%

# System: not listed separately
# Experiment: logP determination by HPLC (EEC Directive 79/831 Annex V.A8)
# Type: physicochemical
# Details: pH 2.3; HPLC reversed-phase column (C 18), 43° C.; read-out: log P(pH 2.3)
# Method: The stated logp values were determined in accordance with EEC Directive 79/831 Annex V.A8 by HPLC (High Performance Liquid Chromatography) using a reversed-phase column (C 18). Temperature: 43° C.
# Mobile phases for the determination in the acidic range: 0.1% aqueous phosphoric acid, acetonitrile; linear gradient from 10% acetonitrile to 90% acetonitrile.
# Calibration was carried out using unbranched alkane-2-ones (having 3 to 16 carbon atoms) with known logp values (determination of the logp values by the retention times using linear interpolation between two successive alkanones).
row,Compound,chromatographic logP
1,CN(CC(=O)OCC(F)(F)C(F)(F)C(F)(F)C(F)F)c1nccc(-n2cccn2)n1 [Example 73],3.46
2,O=C(CSc1nccc(-n2cccn2)n1)OCC(F)(F)C(F)(F)C(F)(F)C(F)F [Example 58],3.42
3,CN(CC(=O)OCC(F)(F)C(F)(F)F)c1nccc(-n2cccn2)n1 [Example 60],3.2
4,COc1cnn(-c2ccnc(SCC(=O)OCC(F)(F)C(F)(F)C(F)(F)F)n2)c1 [Example 91],3.78
5,COc1cnn(-c2ccnc(SCC(=O)OC(C)C(F)(F)C(F)(F)C(F)(F)F)n2)c1 (stereo not shown) [Example 93],4.14
6,CN(CC(=O)OCC(F)(F)C(F)(F)C(F)(F)F)c1nccc(-n2cc(Cl)cn2)n1 [Example 83],4.46
7,O=C(CSc1nccc(-n2cc(Br)cn2)n1)OCC(F)(F)C(F)(F)C(F)(F)F [Example 90],4.34
8,CC(OC(=O)CSc1nccc(-n2cc(Br)cn2)n1)C(F)(F)C(F)(F)C(F)(F)F (stereo not shown) [Example 94],4.73

# Same assay, conditions: reversed-phase HPLC column (C 18); pH 2.3; HPLC reversed-phase column (C 18), 43° C.
row,chromatographic logP,Compound
1,2.55,"CCOC(=O)CSc1nccc(-n2nccc2[N+](=O)[O-])n1 [Example 2, ethyl {[4-(5-nitro-1H-pyrazol-1-yl)-2-pyrimidinyl]thio}acetate]"
2,2.28,"CCOC(=O)CSc1nccc(-n2cc(C)cn2)n1 [Example 1, ethyl {[4-(4-methyl-1H-pyrazol-1-yl)-2-pyrimidinyl]thio}acetate]"
3,2.1,"CCOC(=O)CN(C)c1nccc(-n2cccn2)n1 [Example 3, ethyl N-methyl-N-[4-(1H-pyrazol-1-yl)-2-pyrimidinyl]glycinate]"
4,2.27,CCOC(=O)CSc1nccc(Br)n1 [Ethyl [(4-bromo-2-pyrimidinyl)thio]acetate]

# Same assay, conditions: reversed-phase HPLC column (C 18); pH 2.3; HPLC reversed-phase column (C 18), 43° C.; read-out: log P(pH 2.3)
row,chromatographic logP,Compound
1,1.45,COc1cnn(-c2ccnc(SCC(=O)O)n2)c1 [Example 84]
2,2.87,C=Cc1cnn(-c2ccnc(SCC(=O)OCC)n2)c1 [Example 96]
3,3.34,CCOC(=O)CSc1nccc(-n2ncc3ccccc32)n1 [Example 22]
4,3.57,CCOC(=O)CN(CC(C)C)c1nccc(-n2cccn2)n1 [Example 69]
5,1.14,COc1cnn(-c2ccnc(N(C)CC(=O)O)n2)c1 [Example 61]
6,2.53,CCOC(=O)CN(CC)c1nccc(-n2cccn2)n1 [Example 46]
7,3.27,CCOC(=O)CSc1nccc(-n2cc(C(F)(F)F)cn2)n1 [Example 64]
8,2.99,CCOC(=O)CSc1nccc(-n2cc(CC)cn2)n1 [Example 55]
9,2.87,COc1cnn(-c2ccnc(SCC(=O)OCC(F)(F)F)n2)c1 [Example 101]
10,0.94,CCOC(=O)CSc1nccc(-n2cc(N)cn2)n1 [Example 99]
11,3.45,CCOC(=O)CSc1nccc(-n2cc(SC(F)(F)C(F)F)cn2)n1 [Example 102]
12,2.79,CCOC(=O)CSc1nccc(-n2cc(C(=O)OCC)cn2)n1 [Example 47]
13,1.81,O=C(O)CSc1nccc(-n2cc(Cl)cn2)n1 [Example 82]
14,2.71,C#Cc1cnn(-c2ccnc(SCC(=O)OCC)n2)c1 [Example 74]
15,2.89,CCOC(=O)CN(C)c1nccc(-n2cc(OC(C)C)cn2)n1 [Example 51]
16,1.82,CN(CC(=O)O)c1nccc(-n2cc(Cl)cn2)n1 [Example 63]
17,1.91,CN(CC(=O)O)c1nccc(-n2cc(Br)cn2)n1 [Example 62]
18,3.11,CCOC(=O)CSc1nccc(-n2cc3ccccc3n2)n1 [Example 23]
19,3.15,CCOC(=O)CSc1nccc(-n2cc(OC(C)C)cn2)n1 [Example 20]
20,2.18,CCOC(=O)CSc1nccc(-n2cc(Br)c(N)n2)n1 [Example 41]
21,1.91,O=C(O)CSc1nccc(-n2cc(Br)cn2)n1 [Example 76]
22,2.3,O=C(CSc1nccc(-n2cccn2)n1)OCCCl [Example 33]
23,2.07,CCOC(=O)CSc1nccc(-n2cc(C(C)=O)cn2)n1 [Example 95]
24,4.3,CC(OC(=O)CSc1nccc(-n2cc(Br)cn2)n1)C(F)(F)C(F)(F)F (stereo not shown) [Example 92]

# The next lines start with the compound.
row,Compound,chromatographic logP
1,CCOC(=O)CSc1nccc(-n2ncc3c2CCCC3)n1 [Example 18],3.34
2,CCOC(=O)CSc1nccc(-n2nc(C(F)(F)F)cc2C(F)(F)F)n1 [Example 15],4.03
3,CCOC(=O)CSc1nccc(-n2ccc(C)n2)n1 [Example 14],2.51
4,CCOC(=O)CSc1nccc(-n2ccc(-c3ccc(Cl)cc3)n2)n1 [Example 8],4.5
5,CCOC(=O)CSc1nccc(-n2nc(C)c(Cl)c2C)n1 [Example 16],3.83
6,CCOC(=O)CSc1nccc(-n2cc(C#N)cn2)n1 [Example 13],2.32
7,CCOC(=O)CSc1nccc(-n2cc([N+](=O)[O-])cn2)n1 [Example 12],2.56
8,CCOC(=O)CSc1nccc(-n2nc(C#N)c3ccccc32)n1 [Example 17],3.64
9,CCOC(=O)CSc1nccc(-n2cccn2)n1 [Example 5],2.19
10,CCOC(=O)CSc1nccc(-n2ncc(SC(F)(F)F)c2C)n1 [Example 9],4.08
11,COC(=O)CSc1nccc(-n2cc(Br)cn2)n1 [Example 7],2.69
12,CCOC(=O)CSc1nccc(-n2cc(Cl)cn2)n1 [Example 19],3.01
